Data from publication PMC10741979, “Inhibition of NMDA Receptor Activation in the Rostral Ventrolateral Medulla by Amyloid-β Peptide in Rats” (Biomolecules, 2023).

Experiments:
Assay type in all cases: in vivo, rats
[1] = tested on: NMDA receptors in the RVLM; experiment: Pressor response to microinjection of NMDA into the RVLM; conditions: 0.14 nmol
Description: (§1) The procedure for ICV administration of anesthetized rats was similar to those described in our previous study. Adult male Sprague Dawley 8–10 weeks old rats (300–400 g) were used in this experiment under urethane anesthetized (1.2–1.5 g/kg i.p.). The femoral artery was cannulated with polyethylene tubing (PE 50) and connected with its output to BIOPAC Systems Inc. (MP100 or MP160) to measure pulsatile and mean arterial pressure. After a set of blood pressure recordings, each rat was arranged in a stereotaxic frame for ICV and RVLM microinjection using a stainless still needle connected to the Hamilton microsyringes (10 µL). Drugs were microinjected using a syringe pump (KDS 100) at a rate of 10 µL/min. The magnitude of increases in the blood pressure (pressor responses) induced by microinjection of NMDA (0.14 nmol, 100 nL) into the RVLM every 30 min was used as an index of NMDA receptor function in the RVLM. Aβ and 0.9% saline (5 µL) were applied intracerebroventricularly. The data were processed and calculated before the treatment and at a different period after drug administration.

[2] = tested on: NMDA receptors in the RVLM; experiment: NMDA-induced pressor responses in the RVLM after ICV drug administration
Description: as §1
All values are expressed as mean ± SEM and statistically analyzed using GraphPad Prism version 9.0 for Windows (GraphPad Software, San Diego, CA, USA). We analyzed the original data for NMDA-induced increases in MAP (mmHg) before and after applications of Aβ statistically. The time-effect relationship of Aβ on NMDA-induced pressor responses was analyzed using the repeated measure one-way ANOVA followed by Bonferroni’s multiple comparison post-test. p ≤ 0.05 is considered statistically significant. We compared the effects of Aβ on NMDA-increased mean arterial pressure to the control and expressed them as percentage changes; the peak amplitude of NMDA-induced pressor responses before the application of Aβ is taken as control (i.e., 100%). Immunohistochemical data and ELISA data were analyzed using an unpaired t-test. p ≤ 0.05 is considered statistically significant.

[3] = tested on: pGluN2B-serine1480; experiment: Immunofluorescence, number of pGluN2B-serine1480-IF neurons in the RVLM; conditions: 10 min after ICV 2 nmol; mean ± SEM, n = 6; saline group 45.9 ± 1.0 (n = 8); significant difference
Procedure: (§2) The procedure of immunostaining of RVLM tissue sections was similar to those previously described. The animals were anesthetized with i.p. urethane (1.2–1.5 g/kg). The rat was sacrificed at 10 min following ICV administration of Aβ or saline by transcardial perfusion with 50 mL of saline followed by 300–400 mL of paraformaldehyde (4%) in 0.1 M phosphate buffer (pH 7.4). The RVLM was post-fixed in the same fixative overnight and then cryoprotected in 30% sucrose in 0.05 M phosphate buffer (pH 7.4) for 48 h. Coronal brainstem sections (30 μm) were cut through the segments using a cryostat (Leica CM3050S, Leica Microsystems Nussloch GmbH, Nussloch, Germany). […] For the relative quantification of immunoreactivity, each image field was captured using a CCD camera mounted on a microscope (Nikon Eclipse E800, Corporation, Tokyo, Japan). […] The average number of immunoreactive (IR) neurons on both sides per section was counted and averaged. We randomly took 4–6 sections per animal and calculated the average number of IR neurons representing the animal’s immunoreactivity to the antibody.
(§3) All values are expressed as mean ± SEM and statistically analyzed using GraphPad Prism version 9.0 for Windows (GraphPad Software, San Diego, CA, USA). We analyzed the original data for NMDA-induced increases in MAP (mmHg) before and after applications of Aβ statistically. […]

[4] = tested on: pGluN1-serine896; experiment: Immunohistochemistry, number of pGluN1-serine896-immunoreactive neurons in the RVLM; conditions: 10 min after ICV 2 nmol; mean ± SEM, n = 6; saline group 48.9 ± 1.8; no significant difference
Procedure: as §2, §3

[5] = tested on: GluN2B; experiment: Immunofluorescence, number of GluN2B-IF neurons in the RVLM; conditions: 10 min after ICV 2 nmol; mean ± SEM, n = 7; saline group 55.2 ± 1.4
Procedure: as §2, §3

[6] = tested on: GluN1; experiment: Immunohistochemistry, number of GluN1-immunoreactive neurons in the RVLM; conditions: 10 min after ICV 2 nmol; mean ± SEM, n = 6; saline group 63.2 ± 2.4; no significant difference
Procedure: as §2, §3

[7] = ICV 2 nmol (Aβ1-40 n = 14, Aβ1-42 n = 9), NMDA 0.14 nmol into RVLM every 30 min, urethane-anesthetized male SD rats

## CN[C@H](CC(=O)O)C(=O)O [NMDA, N-methyl-D-aspartate]
[1]; 100 nL into RVLM
  duration of pressor responses: 10 to 15 min
  onset of pressor responses: ≤ 2 min
[1]; 100 nL, at intervals of 30 min, urethane-anesthetized male SD rats
  effect of microinjection into the RVLM on MAP: induced an increase in MAP

## CC(C(O)c1ccc(O)cc1)N1CCC(Cc2ccccc2)CC1 (centres unmarked) [ifenprodil]
[2]; ICV 0.5 nmol alone, n = 5
  effect on NMDA-induced pressor responses in the RVLM: did not produce any noticeable changes
[2]; ICV 2.5 nmol alone, n = 5
  effect on NMDA-induced pressor responses in the RVLM: significantly inhibited
[2]; ICV ifenprodil 0.5 nmol with Aβ1-40 2 nmol, n = 6
  effect of co-administration on the inhibitory effects of Aβ1-40 on NMDA-induced pressor responses: attenuated the inhibitory effects

## CC12CC3CC(C)(C1)CC(N)(C3)C2 [memantine]
[2]; ICV 9 nmol alone, n = 6, 10 and 40 min after administration
  effect on NMDA-induced pressor responses in the RVLM: did not produce any noticeable changes
[2]; ICV memantine 9 nmol with Aβ1-40 2 nmol, n = 4
  effect of co-administration on the inhibitory effects of Aβ1-40 on NMDA-induced pressor responses: disappeared

## Aβ1-40: soluble human amyloid-beta peptide 1-40, purchased from Taiclone Biotech Corp.
[3]
  number of pGluN2B-serine1480-IF neurons in the RVLM: 52.6 ± 2.0
[4]
  number of pGluN1-serine896-IR neurons in the RVLM: 46.4 ± 0.8
[5]
  number of GluN2B-IF neurons in the RVLM: 59.2 ± 2.7
[2]; ICV 0.2 nmol, n = 12, NMDA 0.14 nmol into RVLM every 30 min, urethane-anesthetized male SD rats
  effect on NMDA-induced pressor responses in the RVLM: slight reduction
[2]; [7]
  effect on NMDA-induced pressor responses in the RVLM: significantly inhibited
[6]
  number of GluN1-IR neurons in the RVLM: 63.2 ± 3.8

## Aβ1-42: soluble human amyloid-beta peptide 1-42, purchased from Taiclone Biotech Corp.
[2]; [7]
  effect on NMDA-induced pressor responses in the RVLM: did not produce any noticeable changes
[2]; ICV Aβ1-42 2 nmol with ifenprodil 0.5 nmol, n = 6
  effect on NMDA-induced pressor responses in the RVLM on co-administration with ifenprodil: little effect
[2]; ICV Aβ1-42 2 nmol with memantine 9 nmol, n = 6
  effect on NMDA-induced pressor responses in the RVLM on co-administration with memantine: did not show noticeable changes
